Literature values, collected in US20180125916A1, “System and Method for Natural Hair Loss Prevention Oil” (priority 2016, published 2018).

System: male pattern baldness

| SMILES | sexual dysfunction side effect (administered orally) | shedding on use (first 2 months of use) | itching as a side effect (in vivo) |
| --- | --- | --- | --- |
| CC(C)(C)NC(=O)[C@H]1CC[C@H]2[C@@H]3CC[C@H]4NC(=O)C=C[C@]4(C)[C@H]3CC[C@]12C [Finasteride] | known to cause permanent sexual dysfunction | – | – |
| Nc1cc(N2CCCCC2)nc(N)[n+]1[O-] [Minoxidil] | – | can cause shedding in the first 2 months of use | high likelihood of a considerable itching |
